Assay: in vitro flux study with human cadaver skin using a Franz cell apparatus
Format: in vitro ADME
Experimental: An in vitro flux study was conducted with human cadaver skin using a Franz cell apparatus to determine the flux of each drug from the matrix over a 24-hour period.

Structure (SMILES)	flux of drug from the matrix (transdermal system from polymer matrix of Example 1, about 1.05 mg/cm^2 amphetamine and about 0.28 mg/cm^2 clonidine, 24-hour period, FIG. 1, one sample)	pharmacokinetic (delivery) profile
CC(N)Cc1ccccc1 (stereo not drawn) [amphetamine, alpha-methylphenethylamine]	sufficient to achieve a therapeutic effect	
Clc1cccc(Cl)c1N=C1NCCN1 [clonidine]		delivered over an extended period of time

— patent US20150342899A1 (NOVEN PHARMACEUTICALS, INC., priority 2012, published 2015)
